Measurements reported in patent US20080213175A1, “Click chemistry-derived cyclic peptidomimetics as integrin markers” (priority 2006, published 2008).
Values belong to the compound of their own block, whether it stands above or below them.

Experiments:
Integrin αvβ3 = Integrin αvβ3 (Homo sapiens, UniProt P05106+P06756); assay: Surface plasmon resonance (SPR) 'inverse' integrin αvβ3 assay; format: binding
Description: Compound 17 was immobilized onto a CM5 chip (Supplier: Biacore. CM5 is a SPR chip with a carboxymethylated dextran covalently attached to a gold surface) via amine coupling. Integrin αvβ3 samples at 25 nM concentration, premixed with a wide range of concentrations of RGD test compound (0˜1000 nm), were flowed through the CM5 chip at 14° C. The interactions between the flowing integrin αvβ3 sample and the surface of the chip were recorded by Biacore sensorgram signals. Flow cell #1 served as blank control and the flow cell #2 were coated with compound 17. After subtraction the blank signal of flow cell #1 from the signal of flow cell #2, the resulting sensorgram signals from each cycle were converted into percentage values. Then the Kd and IC50 values for each RGD compounds were calculated.

[1] = target: T1, Integrin αvβ3 expressing U87MG cells (Homo sapiens, UniProt P05106+P06756); assay: Cell-based integrin binding competition assay; conditions: competition with 2 μM fluorescence labeled compound 18, 2 hrs
T1 construct: Integrin αvβ3 expressing U87MG cells; endogenous in cells; host or cells: U87MG
Description: Integrin αvβ3 expressing U87MG cells were incubated with a series of concentration of RGD compounds (0-32 μM) in the presence of 2 μM of green fluorescence labeled compound 18 for 2 hrs. After incubation, cells were washed three times to eliminate unbound RGD compounds. Fluorescence readings (RLU) were then taken (excitation at 491 nm, emission at 518 nm, cutoff 515 nm).
The results are consistent with that of surface plasmon resonance assay.

[2] = tested on: tumor xenograft of either U87MG human glioblastoma or A431 human squamous cell carcinoma; conditions: mouse, in vivo
Description: PET Studies: In vivo microPET imaging of a tumor-bearing mouse is performed on an anesthetized mouse bearing tumor xenograft of either U87MG human glioblastoma or A431 human squamous cell carcinoma after administration of cyclic peptidomimetic. […] See e.g. FIG. 3-6.

[3] = tested on: integrin-positive M21 melanoma xenograft; conditions: integrin-positive M21 melanoma xenograft model; cited from earlier work
[4] = tested on: A431 human squamous cell carcinoma model; conditions: tumor cells integrin negative; cited from earlier work
[5] = cited from earlier work
integrin = integrin (Homo sapiens, UniProt P05106+P06756); conditions: cited from earlier work
[6] = SPR, compared with RGDfK, FIG. 1

binding affinity to integrin αvβ3 (Integrin αvβ3; 'inverse' SPR, compound 17 immobilized on CM5 chip, integrin αvβ3 25 nM, 14° C.): surprisingly high binding affinity | IC50 (Integrin αvβ3; [6]): very close to those of RGDfK | Kd (Integrin αvβ3; [6]): very close to those of RGDfK | potency [1]: very similar in potency
Structure (SMILES): N=C(N)NCCC[C@@H]1NC(=O)[C@H](CCCCN)n2cc(nn2)[C@H](Cc2ccccc2)NC(=O)[C@H](CC(=O)O)NC(=O)CNC1=O [Compound 1]

tumor uptake and retention [2]: good tumor uptake and retention | wash-out rate from muscle and other healthy tissues [2]: fast wash-out rate
Structure (SMILES): N=C(N)NCCC[C@@H]1NC(=O)[C@H](CCCCNC(=O)CCOCCOCCOCCOCCNC(=O)Cn2cc(CCCF)nn2)n2cc(nn2)[C@H](Cc2ccccc2)NC(=O)[C@H](CC(=O)O)NC(=O)CNC1=O [Compound 2]
renal clearance and liver uptake [2]: favorable renal clearance and very little liver uptake

tumor uptake and retention [2]: good tumor uptake and retention | wash-out rate from muscle and other healthy tissues [2]: fast wash-out rate
Structure (SMILES): N=C(N)NCCC[C@@H]1NC(=O)[C@H](CCCCNC(=O)CCN(CCC(=O)NCCCC[C@H]2C(=O)N[C@@H](CCCNC(=N)N)C(=O)NCC(=O)N[C@@H](CC(=O)O)C(=O)N[C@@H](Cc3ccccc3)c3cn2nn3)C(=O)CCOCCOCCOCCOCCNC(=O)Cn2cc(CCCF)nn2)n2cc(nn2)[C@H](Cc2ccccc2)NC(=O)[C@H](CC(=O)O)NC(=O)CNC1=O [Compound 3]
renal clearance and liver uptake [2]: favorable renal clearance and very little liver uptake

Structure (SMILES): CC([18F])C(=O)NC[C@H]1OC(C(=O)NCCCC[C@@H]2NC(=O)C(Cc3ccccc3)NC(=O)[C@H](CC(=O)O)NC(=O)CNC(=O)[C@H](CCCNC(=N)N)NC2=O)[C@@H](O)C(O)C1O (stereo partly drawn) [[^18F]galacto-RGD]
tumor uptake [3]: integrin αvβ3-specific tumor uptake | visualization of integrin αvβ3 expression from tumor vasculature [4]: sensitive enough for visualization of integrin αvβ3 expression | activity accumulation in organs ([5]; both preclinical models and human studies): prominent activity accumulation in the liver, kidneys, spleen, and intestines | safety of administration ([5]; healthy volunteers and a limited number of cancer patients): could be safely administered to patients | pharmacokinetic behavior ([5]; human, in vivo): unfavorable pharmacokinetic behavior | tumor standard uptake values ([5]; human, in vivo): modest tumor standard uptake values | delineation of integrin-positive lesions ([5]; initial clinical trials): able to delineate certain lesions that were integrin-positive with reasonable contrast | integrin binding affinity (integrin): relatively low integrin binding affinity
